Consider 24 molecules from patent publication US20250066341A1 (CHIESI FARMACEUTICI S.P.A., priority 2021, published 2025).

The target in this experiment is T1, human recombinant LPA1 expressed in CHO cells (Homo sapiens, UniProt Q92633).
T1 construct: expressed in transfected cells; host or cells: CHO cells (CHO-hLPA1 cell line)
T1 sequence (Q92633 whole entry): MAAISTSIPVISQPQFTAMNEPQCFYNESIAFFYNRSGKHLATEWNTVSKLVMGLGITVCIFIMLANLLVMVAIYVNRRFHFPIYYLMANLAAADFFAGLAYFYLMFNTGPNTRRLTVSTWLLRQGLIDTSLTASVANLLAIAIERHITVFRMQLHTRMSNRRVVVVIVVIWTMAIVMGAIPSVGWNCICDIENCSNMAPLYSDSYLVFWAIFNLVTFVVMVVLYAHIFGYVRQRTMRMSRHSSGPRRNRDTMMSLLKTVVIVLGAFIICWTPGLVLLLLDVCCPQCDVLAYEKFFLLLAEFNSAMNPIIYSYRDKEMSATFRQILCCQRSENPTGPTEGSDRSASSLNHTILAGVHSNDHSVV
In words: FLIPR calcium mobilization assay, LPA1 antagonism in CHO-hLPA1 cells. To be noted: inhibition of LPA EC80 Ca2+ response, 30 min pre-incubation, expressed as range of activity. Format: cell-based. On the procedure:
The effectiveness of compounds of the present invention as LPA1 antagonist can be determined at the human recombinant LPA1 expressed in CHO cells, using a FLIPR assay in 384 well format.
CHO-hLPA1 cell lines are cultured in a humidified incubator at 5% C02 in DMEM/F-12 (1:1) MIXTURE with 2 mM Glutamax, supplemented with 10% of Foetal Bovine Serum, 1 mM Sodium Pyruvate, 11 mM Hepes and 1× Penicillin/Streptomycin. […] Serial dilutions (1:3 or 1:4, 11 points CRC) of compounds are performed in 100% DMSO at 200× the final concentration. […] The final concentration of DMSO in the assay will be 0.5% in each well. Medium is removed by aspiration and cells are then incubated with 30 μl of a loading solution containing 5 μM of the cytoplasmic Ca2+ indicator Cal-520 AM in Assay Buffer containing 2.5 mM probenecid for 30 min at 37° C. incubator (cell loading). The loaded cell plates are transferred into the FLIPR instrument and calcium responses are monitored during the on-line addition protocols. For testing of compounds, after the cell loading, 10 μl/well of 4× antagonists' solution was added onto the cells. After 30 min pre-incubation (at 37° C.), 10 μl/well of 5× concentrated LPA EC80 was added and Ca2+ mobilization responses was followed during the on-line addition protocol. Intracellular peak fluorescence values subtracted by baseline fluorescence are exported and analysed to determine IC50 values, respectively. The calcium response is expressed as percentage of the maximal inhibition of the EC80 agonist response.
The raw data (peak height expressed as relative fluorescence units) are normalized and transformed into “percent of inhibition”. Curve fitting and pIC50 (−LogIC50) estimations are carried out using a four-parameter logistic model using XLfit Software.
Consider `Cc1nc(-c2onc(C)c2Nc2cncc(C3CCCC3)n2)ccc1NC(=O)[C@H]1CCCC[C@@H]1C(=O)O` [Compound 11, (1S,2S)-2-((6-(4-((6-cyclopentylpyrazin-2-yl)amino)-3-methylisoxazol-5-yl)-2-methylpyridin-3-yl)carbamoyl)cyclohexane-1-carboxylic acid], for which the half-maximal inhibitory concentration (IC50) is less than 0.05 µM.

With `Cc1nc(-c2onc(C)c2Nc2cncc(CC(C)C)n2)ccc1NC(=O)[C@H]1CCCC[C@@H]1C(=O)O` [Compound 12, (1S,2S)-2-((6-(4-((6-isobutylpyrazin-2-yl)amino)-3-methylisoxazol-5-yl)-2-methylpyridin-3-yl)carbamoyl)cyclohexane-1-carboxylic acid], the IC50 lay within 0.05 to 0.25 µM.

On to `Cc1nc(-c2onc(C)c2Nc2cncc(C(C)C)n2)ccc1NC(=O)[C@H]1CCCC[C@@H]1C(=O)O` [Compound 13, (1S,2S)-2-((6-(4-((6-isopropylpyrazin-2-yl)amino)-3-methylisoxazol-5-yl)-2-methylpyridin-3-yl)carbamoyl)cyclohexane-1-carboxylic acid], for which the IC50 was 0.05 to 0.25 µM.

Regarding `Cc1nc(-c2onc(C)c2Nc2cncc(-c3ccccn3)n2)ccc1NC(=O)[C@H]1CCCC[C@@H]1C(=O)O` [Compound 14, (1S,2S)-2-((2-methyl-6-(3-methyl-4-((6-(pyridin-2-yl)pyrazin-2-yl)amino)isoxazol-5-yl)pyridin-3-yl)carbamoyl)cyclohexane-1-carboxylic acid], the IC50 was in the range of 0.05 to 0.25 µM.

With `Cc1nc(-c2onc(C)c2Nc2cncc(NC3CCCC3)n2)ccc1NC(=O)[C@H]1CCCC[C@@H]1C(=O)O` [Compound 15, (1S,2S)-2-((6-(4-((6-(cyclopentylamino)pyrazin-2-yl)amino)-3-methylisoxazol-5-yl)-2-methylpyridin-3-yl)carbamoyl)cyclohexane-1-carboxylic acid], the IC50 was in the range of 0.05 to 0.25 µM.

On to `Cc1nc(-c2cnn(C)c2CNc2nccc(OC(C)C)n2)ccc1NC(=O)[C@H]1CCCC[C@@H]1C(=O)O` [Compound 17, (1S,2S)-2-((6-(5-(((4-isopropoxypyrimidin-2-yl)amino)methyl)-1-methyl-1H-pyrazol-4-yl)-2-methylpyridin-3-yl)carbamoyl)cyclohexane-1-carboxylic acid], for which the IC50 is 0.05 to 0.25 µM.

As to `Cc1nc(-c2cnn(C)c2CNc2nccc(C3CCCCC3)n2)ccc1NC(=O)[C@H]1CCCC[C@@H]1C(=O)O` [Compound 18], the IC50 is less than 0.05 µM.

As for `Cc1nc(-c2cnn(C)c2CNc2nccc(-c3ccccc3)n2)ccc1NC(=O)[C@H]1CCCC[C@@H]1C(=O)O` [Compound 19, (1S,2S)-2-((2-methyl-6-(1-methyl-5-(((4-phenylpyrimidin-2-yl)amino)methyl)-1H-pyrazol-4-yl)pyridin-3-yl)carbamoyl)cyclohexane-1-carboxylic acid], the IC50 is less than 0.05 µM.

As to `CC(C)Oc1cncc(Nc2c(-c3ccc(NC(=O)[C@H]4CCCC[C@@H]4C(=O)O)cc3)cnn2C)n1` [Compound 20, (1S,2S)-2-((4-(5-((6-isopropoxypyrazin-2-yl)amino)-1-methyl-1H-pyrazol-4-yl)phenyl)carbamoyl)cyclohexane-1-carboxylic acid], the IC50 was in the range of 0.05 to 0.25 µM.

As to `Cc1nc(-c2cnn(C)c2COC(=O)N(C)CCC(C)C)ccc1NC(=O)[C@H]1CCCC[C@@H]1C(=O)O` [Compound 21, (1S,2S)-2-((6-(5-(((isopentyl(methyl)carbamoyl)oxy)methyl)-1-methyl-1H-pyrazol-4-yl)-2-methylpyridin-3-yl)carbamoyl)cyclohexane-1-carboxylic acid], the IC50 lay in the range of 0.25 to 0.6 µM.

Turning to `Cc1nc(-c2onc(C)c2NS(=O)(=O)CCc2ccccc2Cl)ccc1NC(=O)[C@H]1CCCC[C@@H]1C(=O)O` [Compound 22, (1S,2S)-2-((6-(4-((2-(2-chlorophenyl)ethyl)sulfonamido)-3-methylisoxazol-5-yl)-2-methylpyridin-3-yl)carbamoyl)cyclohexane-1-carboxylic acid], the IC50 was less than 0.05 µM.

As for `Cc1nc(-c2onc(C)c2NS(=O)(=O)CCc2ccccc2)ccc1NC(=O)[C@H]1CCCC[C@@H]1C(=O)O` [Compound 23, (1S,2S)-2-((2-methyl-6-(3-methyl-4-((2-phenylethyl)sulfonamido)isoxazol-5-yl)pyridin-3-yl)carbamoyl)cyclohexane-1-carboxylic acid], the IC50 fell in the range of 0.05 to 0.25 µM.

Regarding `Cc1nc(-c2onc(C)c2NS(=O)(=O)CCc2ccccc2F)ccc1NC(=O)[C@H]1CCCC[C@@H]1C(=O)O` [Compound 24, (1S,2S)-2-((6-(4-((2-(2-fluorophenyl)ethyl)sulfonamido)-3-methylisoxazol-5-yl)-2-methylpyridin-3-yl)carbamoyl)cyclohexane-1-carboxylic acid], the IC50 was 0.05 to 0.25 µM.

Turning to `Cc1nc(-c2onc(C)c2NS(=O)(=O)CCOc2ccc(F)cc2)ccc1NC(=O)[C@H]1CCCC[C@@H]1C(=O)O` [Compound 25, (1S,2S)-2-((6-(4-((2-(4-fluorophenoxy)ethyl)sulfonamido)-3-methylisoxazol-5-yl)-2-methylpyridin-3-yl)carbamoyl)cyclohexane-1-carboxylic acid], the IC50 was 0.05 to 0.25 µM.

Regarding `Cc1nc(-c2onc(C)c2NS(=O)(=O)CCCc2ccccc2)ccc1NC(=O)[C@H]1CCCC[C@@H]1C(=O)O` [Compound 26, (1S,2S)-2-((2-methyl-6-(3-methyl-4-((3-phenylpropyl)sulfonamido)isoxazol-5-yl)pyridin-3-yl)carbamoyl)cyclohexane-1-carboxylic acid], the IC50 is less than 0.05 µM.

Take `Cc1nc(-c2onc(C)c2NS(=O)(=O)CCc2ccc(F)cc2)ccc1NC(=O)[C@H]1CCCC[C@@H]1C(=O)O` [Compound 27]: the IC50 lay within 0.05 to 0.25 µM.

`Cc1nc(-c2onc(C)c2NS(=O)(=O)CCc2ccc(Cl)cc2)ccc1NC(=O)[C@H]1CCCC[C@@H]1C(=O)O` [Compound 28, (1S,2S)-2-((6-(4-((2-(4-chlorophenyl)ethyl)sulfonamido)-3-methylisoxazol-5-yl)-2-methylpyridin-3-yl)carbamoyl)cyclohexane-1-carboxylic acid]: the IC50 is less than 0.05 µM.

As for `Cc1nc(-c2onc(C)c2CNC(=O)OCc2ccccc2)ccc1NC(=O)[C@H]1CCCC[C@@H]1C(=O)O` [Compound 32, (1S,2S)-2-((6-(4-((((benzyloxy)carbonyl)amino)methyl)-3-methylisoxazol-5-yl)-2-methylpyridin-3-yl)carbamoyl)cyclohexane-1-carboxylic acid], the IC50 was in the range of 0.05 to 0.25 µM.

Consider `Cc1nc(-c2onc(C)c2CNC(=O)O[C@H](C)c2ccccc2)ccc1NC(=O)[C@H]1CCCC[C@@H]1C(=O)O` [Compound 35, (1S,2S)-2-((2-methyl-6-(3-methyl-4-(((((R)-1-phenylethoxy)carbonyl)amino)methyl)isoxazol-5-yl)pyridin-3-yl)carbamoyl)cyclohexane-1-carboxylic acid], for which the IC50 was in the range of 0.25 to 0.6 µM.

Consider `CCOc1ccnc(NCc2c(C)noc2-c2ccc(NC(=O)[C@H]3CCCC[C@@H]3C(=O)O)c(C)n2)n1` [Compound 36, (1S,2S)-2-((6-(4-(((4-ethoxypyrimidin-2-yl)amino)methyl)-3-methylisoxazol-5-yl)-2-methylpyridin-3-yl)carbamoyl)cyclohexane-1-carboxylic acid], for which the half-inhibitory concentration (IC50) fell in the range of 0.05 to 0.25 µM.

Consider `Cc1nc(-c2onc(C)c2CNc2nccc(-c3cccs3)n2)ccc1NC(=O)[C@H]1CCCC[C@@H]1C(=O)O` [Compound 37, (1S,2S)-2-((2-methyl-6-(3-methyl-4-(((4-(thiophen-2-yl)pyrimidin-2-yl)amino)methyl)isoxazol-5-yl)pyridin-3-yl)carbamoyl)cyclohexane-1-carboxylic acid], for which the IC50 was less than 0.05 µM.

In the case of `Cc1nc(-c2onc(C)c2CNc2nccc(-c3cccnc3)n2)ccc1NC(=O)[C@H]1CCCC[C@@H]1C(=O)O` [Compound 38, (1S,2S)-2-((2-methyl-6-(3-methyl-4-(((4-(pyridin-3-yl)pyrimidin-2-yl)amino)methyl)isoxazol-5-yl)pyridin-3-yl)carbamoyl)cyclohexane-1-carboxylic acid], the IC50 is less than 0.05 µM.

On to `Cc1nc(-c2onc(C)c2CNc2nccc(-c3ccsc3)n2)ccc1NC(=O)[C@H]1CCCC[C@@H]1C(=O)O` [Compound 39, (1S,2S)-2-((2-methyl-6-(3-methyl-4-(((4-(thiophen-3-yl)pyrimidin-2-yl)amino)methyl)isoxazol-5-yl)pyridin-3-yl)carbamoyl)cyclohexane-1-carboxylic acid], for which the IC50 was less than 0.05 µM.

For `Cc1nc(-c2onc(C)c2CNc2nccc(-c3cccc4ccccc34)n2)ccc1NC(=O)[C@H]1CCCC[C@@H]1C(=O)O` [Compound 40, (1S,2S)-2-((2-methyl-6-(3-methyl-4-(((4-(naphthalen-1-yl)pyrimidin-2-yl)amino)methyl)isoxazol-5-yl)pyridin-3-yl)carbamoyl)cyclohexane-1-carboxylic acid], the IC50 was less than 0.05 µM.
